One compound from PMC3125149, “SCYX-7158, an Orally-Active Benzoxaborole for the Treatment of Stage 2 Human African Trypanosomiasis” (PLoS Neglected Tropical Diseases, 2011) can be followed below.

Data set [1] in a line: Pharmacokinetics in cynomolgus monkeys. In kind it is in vivo, cynomolgus monkey. The method, then: The blood distribution, CNS disposition and pharmacokinetics of SCYX-7158 were evaluated in infected or non-infected rodents following intravenous or oral administration of compounds. Pharmacokinetics and bioavailability of SCYX-7158 were also evaluated in non-infected beagle dogs and cynomolgus monkeys. In-life phases of non-infected rodent studies were performed at Vivisource (Waltham, MA); studies in non-naïve cynomolgus monkeys were performed by SNBL USA (Everett, WA). Male CD-1 mice (∼25 g), male Sprague-Dawley rats (∼225 g), or male cynomolgus monkeys (∼3–5 kg) were administered test article by either bolus intravenous injection (IV) or oral gavage. Animals in the IV groups received a single 2 mg/kg IV dose. Animals received oral doses of test articles as either single or twice daily doses ranging from 8 mg/kg to 50 mg/kg. All doses were administered as clear colorless solutions in either 50% (v/v) PEG 400: 20% (v/v) ethanol: 30% (v/v) carboxymethylcellulose (0.5% w/v in sterile water for injection) or 2% (v/v) ethanol: 5% (w/v) dextrose in sterile water for injection. […] For pharmacokinetic analysis, blood samples were collected from mice via cardiac puncture under terminal anaesthesia. Serial blood samples were collected from rats via a vascular access port located in the lateral saphenous vein. Mice and rats were euthanized in a CO2 chamber before collection of terminal blood samples or brain tissue. Blood samples were collected into polypropylene tubes containing K2EDTA anticoagulant and stored on ice until centrifuged for the preparation of plasma. Plasma was stored at −70°C. Whole brains were collected following decapitation, blotted dry, placed into polypropylene containers and then immediately frozen at approximately −70°C. CSF was collected from rats via cisterna magna puncture, placed in sterile polypropylene tubes, and stored at approximately −70°C. […] Treated samples were gently mixed at room temperature for 10 min, and then centrifuged at approximately 3000×g for 15 min at 15°C. The supernatants were transferred to 96-well plates or HPLC vials for analysis by LC-MS/MS. Pharmacokinetic parameters were calculated from composite mean plasma or tissue data using non-compartmental (oral and intravenous routes) and bi-exponential (intravenous route) analyses in Microsoft Excel.

The test system of the next data set is T. b. brucei TREU 667. As to the kind of experiment: Efficacy in mouse model for chronic (CNS, stage 2) HAT. It is filed as in vivo. The method, then:
For evaluation against late-stage CNS infections, a chronic disease inducing strain (TREU 667) of T. b. brucei was used.[19] Mice were divided into groups of ten and each animal was infected i.p. with 1×10^4 parasites (200 μL). […] Louis, MO) administered by i.p. injection on day 4 after infection. […] Animals were checked for parasitemia once per week and were immediately removed from the cages and euthanized upon recrudescence. Animals were considered to be cured of a CNS infection if they were […] for at least 180 days after the end of the treatment period.

A word on the AUC(0-inf): it is total exposure, with the tail of the curve extrapolated. A low value points to less exposure. For orientation: Cmax means the highest concentration seen after dosing. As a reminder, the bioavailability is the share of a dose that reaches the circulation, judged against a reference dose that is usually intravenous. Broadly, the clearance is the rate of elimination divided by the concentration. A higher clearance goes with a high capacity for elimination.

Molecules are shown by their SMILES.

As to `CC1(C)OB(O)c2cc(NC(=O)c3ccc(F)cc3C(F)(F)F)ccc21` [SCYX-7158], the “time of Cmax” value in data set [1] (10 mg/kg NG, plasma) was 9.5 h. Also, the Kp in data set [1] (male, cynomolgus monkey, CSF/plasma, at each time point, read-out: CSF concentration as % of the plasma concentration) is roughly 0.05. Moreover, the AUC(0-inf) in data set [1] (male, cynomolgus monkey, oral, 10 mg/kg SCYX-7158 NG, plasma) was found to be 460 µg·h/mL; in data set [1] (male, cynomolgus monkey, 2 mg/kg IV, plasma), 94.4 µg·h/mL. In addition, the peak concentration (Cmax) in data set [1] (male, cynomolgus monkey, oral, 10 mg/kg SCYX-7158 nasogastric (NG), plasma) is 11000 ng/mL. Further, the bioavailability in data set [1] (male, cynomolgus monkey, plasma, po, 10 mg/kg NG, read-out: absolute oral bioavailability) was determined as 89%. Further, in data set [1] (male, cynomolgus monkey, plasma, po, 10 mg/kg NG, read-out: oral clearance (Cl/F) (converted)), the CL/F was 0.417 mL/min/kg. Moreover, the clearance in data set [1] (male, cynomolgus monkey, plasma, 2 mg/kg IV) was 0.367 mL/min/kg. In addition, in data set [1] (male, cynomolgus monkey, plasma, 2 mg/kg IV, read-out: Vdss), the Vd is 0.656 L/kg. Moreover, the AUC(0-t) in data set [1] (male, cynomolgus monkey, 2 mg/kg IV, plasma, read-out: AUC0–24 h) stood at 78800 ng·h/mL. In addition, the cure rate amounted to 80% in the data set with T. b. brucei TREU 667 (12.5 mg/kg once daily oral over 7 days starting day 21 after infection) and 100% with T. b. brucei TREU 667 (25 mg/kg once daily oral, 7 doses, starting day 21 after infection). The “lowest effective oral dose in murine stage 2 study” value in the data set on T. b. brucei TREU 667 (QD×7 days, oral) turned out to be 12.5 mg/kg.
